Measurements reported in patent US6358885B1, “Substituted phenylheterocyclic herbicides” (Mississippi State University, priority 1992, dated 2002).

What was measured:
barnyardgrass = test: Test B preemergence/postemergence greenhouse plant response rating 0 to 10; format: in vivo, Echinochloa crus-galli; details: 0 to 10 scale
In short: (§1)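 Test chemicals were sprayed onto freshly planted seed and, concurrently, onto young plants between the one and four leaf stage. After a twelve- to sixteen-day greenhouse period, each species was visually compared with untreated controls.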

chickweed = test: as above; format: in vivo, Stellaria media; details: 0 to 10 scale
In short: as §1

rape = test: as above; format: in vivo, Brassica napus; details: 0 to 10 scale
In short: as §1

wild buckwheat = test: as above; format: in vivo, Polygonum convolvulus; details: 0 to 10 scale
In short: as §1

bedstraw = test: Test C preemergence/postemergence greenhouse plant response rating 0 to 100; format: in vivo, Galium aparine; details: for Plant response rating, Bedstraw: 62 g/ha, 0 to 100 scale
Excerpt: (§2) The compounds evaluated in this test were formulated in a non-phytoxic solvent and applied to the soil surface before plant seedlings emerged (preemergence application), to water that covered the soil surface (flood application), and to plants that were in the one-to-four leaf stage (postemergence application). A sandy loam soil was used for the preemergence and postemergence tests, while a silt loam soil was used in the flood test. Water depth was approximately 2.5 cm for the flood test and was maintained at this level for the duration of the test. Plant species in the preemergence and postemergence tests consisted of barley (Hordeum vulgare), bedstraw (Galium aparine), blackgrass (Alopecurus myosuroides), chickweed (Stellaria media), corn (Zea mays), cotton (Gossypium hirsutum), crabgrass (Digitaria sanguinalis), downy brome (Bromus tectorum), giant foxtail (Setaria faberii), lambsquarters (Chenopodium album), morningglory (Ipomoea hederacea), pigweed ([…]), rape (Brassica napus), ryegrass (Lolium multiflorum), sorghum (Sorghum bicolor), soybean (Glycine max), speedwell (Veronica persica), sugar beet (Beta vulgaris), velvetleaf (Abutilon theophrasti), wheat (Triticum aestivum), wild buckwheat (Polygonum convolvulus), and wild oat (Avena fatua). All plant species were planted one day before application of the compound for the preemergence portion-of this test. Plantings of these species were adjusted to produce plants of appropriate size for the post-emergence portion of the test. […] All plant species were grown using normal greenhouse practices. Visual evaluations of injury expressed on treated plants, when compared to untreated controls, were recorded approximately fourteen to twenty one days after application of the test compound. […] A dash (-) response means no test result.

corn = test: as above; format: in vivo, Zea mays; details: for Plant response rating, Corn: 62 g/ha, 0 to 100 scale
Excerpt: as §2

crabgrass = test: as above; format: in vivo, Digitaria sanguinalis; details: for Plant response rating, Crabgrass: 62 g/ha, 0 to 100 scale
Excerpt: as §2

downy brome = test: as above; format: in vivo, Bromus tectorum; details: for Plant response rating Downy Brome: 62 g/ha, 0 to 100 scale
Excerpt: as §2

ryegrass = test: as above; format: in vivo, Lolium multiflorum; details: for Plant response rating Ryegrass: 62 g/ha, 0 to 100 scale
Excerpt: as §2

sugar beet = test: as above; format: in vivo, Beta vulgaris
Excerpt: as §2

wild oat = test: as above; format: in vivo, Avena fatua
Excerpt: as §2

umbrella sedge = test: Test C flood test plant response rating 0 to 100; format: in vivo, Cyperus difformis
Excerpt: as §2

[1] = POSTEMERGENCE, 62 g/ha, 0 to 100 scale

## CCN1C(=O)COc2cc(F)c(-c3nn4c(c3Cl)CCCC4)cc21 [Compound 54]
barnyardgrass; POSTEMERGENCE, Rate 10 g/ha
  Plant response rating, Barnyardgrass: 3
barnyardgrass; POSTEMERGENCE, Rate 50 g/ha
  Plant response rating, Barnyardgrass: 5
barnyardgrass; PREEMERGENCE, Rate 10 g/ha
  Plant response rating, Barnyardgrass: 0
barnyardgrass; PREEMERGENCE, Rate 50 g/ha
  Plant response rating, Barnyardgrass: 3
chickweed; POSTEMERGENCE, Rate 50 g/ha
  Plant response rating, Chickweed: 10
chickweed; PREEMERGENCE, Rate 10 g/ha
  Plant response rating, Chickweed: 9
chickweed; PREEMERGENCE, Rate 50 g/ha
  Plant response rating, Chickweed: 10
rape; POSTEMERGENCE, Rate 10 g/ha
  Plant response rating, Rape: 10
rape; POSTEMERGENCE, Rate 50 g/ha
  Plant response rating, Rape: 10
rape; PREEMERGENCE, Rate 50 g/ha
  Plant response rating, Rape: 6
Wild buckwheat; POSTEMERGENCE, Rate 10 g/ha
  Plant response rating, Wild buckwheat: 10
Wild buckwheat; POSTEMERGENCE, Rate 50 g/ha
  Plant response rating, Wild buckwheat: 10
Wild buckwheat; PREEMERGENCE, Rate 50 g/ha
  Plant response rating, Wild buckwheat: 10
bedstraw; POSTEMERGENCE
  Plant response rating, Bedstraw: 100
bedstraw; POSTEMERGENCE, Rate 1 g/ha
  Plant response rating (0 to 100), Bedstraw: 65
bedstraw; POSTEMERGENCE, Rate 4 g/ha
  Plant response rating (0 to 100), Bedstraw: 85
bedstraw; PREEMERGENCE
  Plant response rating, Bedstraw: 50
bedstraw; PREEMERGENCE, Rate 1 g/ha
  Plant response rating (0 to 100), Bedstraw: 0
bedstraw; PREEMERGENCE, Rate 4 g/ha
  Plant response rating (0 to 100), Bedstraw: 0
bedstraw; Rate 16 g/ha, POSTEMERGENCE
  Plant response rating (0 to 100), Bedstraw: 100
bedstraw; Rate 16 g/ha, PREEMERGENCE
  Plant response rating (0 to 100), Bedstraw: 30
corn; POSTEMERGENCE
  Plant response rating, Corn: 50
corn; POSTEMERGENCE, Rate 1 g/ha
  Plant response rating (0 to 100), Corn: 30
corn; POSTEMERGENCE, Rate 4 g/ha
  Plant response rating (0 to 100), Corn: 30
corn; PREEMERGENCE
  Plant response rating, Corn: 40
corn; PREEMERGENCE, Rate 1 g/ha
  Plant response rating (0 to 100), Corn: 0
corn; PREEMERGENCE, Rate 4 g/ha
  Plant response rating (0 to 100), Corn: 0
corn; Rate 16 g/ha, POSTEMERGENCE
  Plant response rating (0 to 100), Corn: 40
corn; Rate 16 g/ha, PREEMERGENCE
  Plant response rating (0 to 100), Corn: 0
crabgrass; POSTEMERGENCE
  Plant response rating, Crabgrass: 50
crabgrass; POSTEMERGENCE, Rate 1 g/ha
  Plant response rating (0 to 100), Crabgrass: 10
crabgrass; POSTEMERGENCE, Rate 4 g/ha
  Plant response rating (0 to 100), Crabgrass: 20
crabgrass; PREEMERGENCE
  Plant response rating, Crabgrass: 50
crabgrass; PREEMERGENCE, Rate 1 g/ha
  Plant response rating (0 to 100), Crabgrass: 0
crabgrass; PREEMERGENCE, Rate 4 g/ha
  Plant response rating (0 to 100), Crabgrass: 0
crabgrass; Rate 16 g/ha, POSTEMERGENCE
  Plant response rating (0 to 100), Crabgrass: 30
crabgrass; Rate 16 g/ha, PREEMERGENCE
  Plant response rating (0 to 100), Crabgrass: 0
Downy brome; POSTEMERGENCE
  Plant response rating Downy Brome: 60
Downy brome; POSTEMERGENCE, Rate 1 g/ha
  Plant response rating (0 to 100), Downy Brome: 10
Downy brome; POSTEMERGENCE, Rate 4 g/ha
  Plant response rating (0 to 100), Downy Brome: 30
Downy brome; PREEMERGENCE
  Plant response rating Downy Brome: 30
Downy brome; PREEMERGENCE, Rate 1 g/ha
  Plant response rating (0 to 100), Downy Brome: 0
Downy brome; PREEMERGENCE, Rate 4 g/ha
  Plant response rating (0 to 100), Downy Brome: 0
Downy brome; Rate 16 g/ha, POSTEMERGENCE
  Plant response rating (0 to 100), Downy Brome: 50
Downy brome; Rate 16 g/ha, PREEMERGENCE
  Plant response rating (0 to 100), Downy Brome: 20
ryegrass; POSTEMERGENCE
  Plant response rating Ryegrass: 60
ryegrass; POSTEMERGENCE, Rate 1 g/ha
  Plant response rating (0 to 100), Ryegrass: 10
ryegrass; POSTEMERGENCE, Rate 4 g/ha
  Plant response rating (0 to 100), Ryegrass: 30
ryegrass; PREEMERGENCE
  Plant response rating Ryegrass: 70
ryegrass; PREEMERGENCE, Rate 1 g/ha
  Plant response rating (0 to 100), Ryegrass: 0
ryegrass; PREEMERGENCE, Rate 4 g/ha
  Plant response rating (0 to 100), Ryegrass: 0
ryegrass; Rate 16 g/ha, POSTEMERGENCE
  Plant response rating (0 to 100), Ryegrass: 40
ryegrass; Rate 16 g/ha, PREEMERGENCE
  Plant response rating (0 to 100), Ryegrass: 30
Sugar beet; [1]
  Plant response rating, Sugar beet: 100
Sugar beet; POSTEMERGENCE, Rate 1 g/ha
  Plant response rating (0 to 100), Sugar beet: 100
Sugar beet; POSTEMERGENCE, Rate 4 g/ha
  Plant response rating (0 to 100), Sugar beet: 100
Sugar beet; PREEMERGENCE, Rate 1 g/ha
  Plant response rating (0 to 100), Sugar beet: 0
Sugar beet; PREEMERGENCE, Rate 4 g/ha
  Plant response rating (0 to 100), Sugar beet: 10
Sugar beet; Rate 16 g/ha, POSTEMERGENCE
  Plant response rating (0 to 100), Sugar beet: 100
Sugar beet; Rate 16 g/ha, PREEMERGENCE
  Plant response rating (0 to 100), Sugar beet: 100
Wild oat; [1]
  Plant response rating, Wild oat: 60
Wild oat; POSTEMERGENCE, Rate 1 g/ha
  Plant response rating (0 to 100), Wild oat: 20
Wild oat; POSTEMERGENCE, Rate 4 g/ha
  Plant response rating (0 to 100), Wild oat: 30
Wild oat; PREEMERGENCE, Rate 1 g/ha
  Plant response rating (0 to 100), Wild oat: 0
Wild oat; PREEMERGENCE, Rate 4 g/ha
  Plant response rating (0 to 100), Wild oat: 0
Wild oat; Rate 16 g/ha, POSTEMERGENCE
  Plant response rating (0 to 100), Wild oat: 40
Wild oat; Rate 16 g/ha, PREEMERGENCE
  Plant response rating (0 to 100), Wild oat: 10
Umbrella sedge; POSTEMERGENCE section, flood test, Rate 1 g/ha
  Plant response rating (0 to 100), Umbrella sedge: 0
Umbrella sedge; POSTEMERGENCE section, flood test, Rate 4 g/ha
  Plant response rating (0 to 100), Umbrella sedge: 0
Umbrella sedge; Rate 16 g/ha, under POSTEMERGENCE head (flood test species)
  Plant response rating (0 to 100), Umbrella sedge: 10
Umbrella sedge; flood test species listed under POSTEMERGENCE, 62 g/ha, 0 to 100 scale
  Plant response rating Umbrella sedge: 70
